Laboratory results from US20160297833A1, “THIENOPYRIMIDINES AS MKNK1 AND MKNK2 INHIBITORS” (BAYER PHARMA AKTIENGESELLSCHAFT, priority 2013, published 2016).
pIC50: −log10 of the molar value.

biological target: T1, human full-length MKNK1 (Homo sapiens, UniProt Q9BUB5, T385D); assay: MKNK1 kinase high ATP assay (TR-FRET); assay type: biochemical; details: not given
T1 construct: GST (N); purchased Carna Biosciences 02-145; host or cells: insect cells (baculovirus expression system)
In short: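 Full-length human MKNK1 (T385D) preincubated 15 min at 22 °C with compound in HEPES pH 7.5/MgCl2/DTT buffer; reaction with 2 mM ATP (final) and 0.06 μM biotinylated peptide (final), 30 min at 22 °C.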

T1 sequence (Q9BUB5 1-424 isoform Q9BUB5-2 T344D): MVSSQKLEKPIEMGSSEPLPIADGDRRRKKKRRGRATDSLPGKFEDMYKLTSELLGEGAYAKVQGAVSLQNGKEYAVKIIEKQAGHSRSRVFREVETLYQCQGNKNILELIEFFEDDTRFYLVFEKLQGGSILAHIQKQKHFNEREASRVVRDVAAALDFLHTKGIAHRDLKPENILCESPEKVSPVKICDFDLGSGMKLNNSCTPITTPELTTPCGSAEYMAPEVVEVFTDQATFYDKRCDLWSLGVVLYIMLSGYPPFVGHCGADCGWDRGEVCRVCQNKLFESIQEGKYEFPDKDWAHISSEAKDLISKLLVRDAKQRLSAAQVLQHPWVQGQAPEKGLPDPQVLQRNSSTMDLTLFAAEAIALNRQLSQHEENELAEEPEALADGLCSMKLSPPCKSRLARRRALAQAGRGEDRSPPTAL

`CCOc1cc2[nH]ncc2cc1Nc1ncnc2sc3c(c12)CC[C@H](C(=O)N1CCC(=O)CC1)C3` [Example 68, 1-({(7S)-4-[(6-Ethoxy-1H-indazol-5-yl)amino]-5,6,7,8-tetrahydro[1]benzothieno[2,3-d]pyrimidin-7-yl}carbonyl)piperidin-4-one] showed a pIC50 of 9.52.

same assay, conditions: Table 1; MKNK1 kinase high ATP assay, 2 mM ATP; read-out: MKNK1 IC50

Point of comparison: `C[C@@H](CN)Oc1cc2[nH]ncc2cc1Nc1ncnc2sc3c(c12)CC[C@H](C(=O)N(C)C)C3` [Example 141, (7S)-4-[(6-{[(25)-1-Aminopropan-2-yl]oxy}-1H-indazol-5-yl)amino]-N,N-dimethyl-5,6,7,8-tetrahydro[1]benzothieno[2,3-d]pyrimidine-7-carboxamide], pIC50 8.47. Against it:
- CC(C)Oc1cc2[nH]ncc2cc1Nc1ncnc2sc3c(c12)CC[C@H](C(=O)N1C[C@@H](O)[C@H](O)C1)C3 [Example 93, [(3R,4R)-3,4-Dihydroxypyrrolidin-1-yl][(7S)-4-{[6-(propan-2-yloxy)-1H-indazol-5-yl]amino}-5,6,7,8-tetrahydro[1]benzothieno[2,3-d]pyrimidin-7-yl]methanone] — 1.53 log units higher, 10.00
- COc1cc2[nH]ncc2cc1Nc1ncnc2sc3c(c12)CC[C@H](C(=O)N1CC(N(C)C)C1)C3 [Example 44, [3-(Dimethylamino)azetidin-1-yl]{(7S)-4-[(6-methoxy-1H-indazol-5-yl)amino]-5,6,7,8-tetrahydro[1]benzothieno[2,3-d]pyrimidin-7-yl}methanone] — 1.23 log units higher, 9.70
- CCN(C(=O)[C@H]1CCc2c(sc3ncnc(Nc4ccc5[nH]ncc5c4)c23)C1)C(C)C [Example 8, (7S)—N-Ethyl-4-(1H-indazol-5-ylamino)-N-(propan-2-yl)-5,6,7,8-tetrahydro[1]benzothieno[2,3-d]pyrimidine-7-carboxamide] — 0.39 log units lower, 8.08
- C[C@H]1COCCN1C(=O)[C@H]1CCc2c(sc3ncnc(Nc4cc5cn[nH]c5cc4OCCN4CCCCC4)c23)C1 [Example 119, [(3S)-3-Methylmorpholin-4-yl][(7S)-4-({6-[2-(piperidin-1-yl)ethoxy]-1H-indazol-5-yl}amino)-5,6,7,8-tetrahydro[1]benzothieno[2,3-d]pyrimidin-7-yl]methanone] — 2.35 log units lower, 6.12
- COc1cc2[nH]ncc2cc1Nc1ncnc2sc3c(c12)CC[C@H](C(=O)N1CCOC[C@@H]1C)C3 [Example 30, {(7S)-4-[(6-Methoxy-1H-indazol-5-yl)amino]-5,6,7,8-tetrahydro[1]benzothieno[2,3-d]pyrimidin-7-yl}[(3S)-3-methylmorpholin-4-yl]methanone] — 1.05 log units higher, 9.52
- C[C@H]1CN(C(=O)[C@H]2CCc3c(sc4ncnc(Nc5cc6cn[nH]c6cc5Br)c34)C2)C[C@H](C)O1 [Example 236, {(7S)-4-[(6-Bromo-1H-indazol-5-yl)amino]-5,6,7,8-tetrahydro[1]benzothieno[2,3-d]pyrimidin-7-yl}[(2S,6S)-2,6-dimethylmorpholin-4-yl]methanone] — 0.63 log units lower, 7.84
- CN(C)C(=O)[C@H]1CCc2c(sc3ncnc(Nc4cc5cn[nH]c5cc4OCCCN4CCCCC4)c23)C1 [Example 278, (7S)—N,N-Dimethyl-4-({6-[3-(piperidin-1-yl)propoxy]-1H-indazol-5-yl}amino)-5,6,7,8-tetrahydro[1]benzothieno[2,3-d]pyrimidine-7-carboxamide] — 1.20 log units lower, 7.27
- CCCOc1cc2[nH]ncc2cc1Nc1ncnc2sc3c(c12)CC[C@H](C(=O)N1CC(C)(O)C1)C3 [Example 95, (3-Hydroxy-3-methylazetidin-1-yl){(7S)-4-[(6-propoxy-1H-indazol-5-yl)amino]-5,6,7,8-tetrahydro[1]benzothieno[2,3-d]pyrimidin-7-yl}methanone] — within 0.2 log units, 8.64
- CN(C)C(=O)[C@H]1CCc2c(sc3ncnc(Nc4cc5cn[nH]c5cc4N(C)CCNC(=O)OC(C)(C)C)c23)C1 [Example 243, tert-butyl {2-[(5-{[(7S)-7-(Dimethylcarbamoyl)-5,6,7,8-tetrahydro[1]benzothieno[2,3-d]pyrimidin-4-yl]amino}-1H-indazol-6-yl)(methyl)amino]ethyl}carbamate] — 0.33 log units higher, 8.80
- CCCOc1cc2[nH]ncc2cc1Nc1ncnc2sc3c(c12)CC[C@H](C(=O)N1CC(O)C1)C3 [Example 159, (3-Hydroxyazetidin-1-yl){(7S)-4-[(6-propoxy-1H-indazol-5-yl)amino]-5,6,7,8-tetrahydro[1]benzothieno[2,3-d]pyrimidin-7-yl}methanone] — 0.25 log units higher, 8.72
- C[C@@H]1CN(C(=O)[C@H]2CCc3c(sc4ncnc(Nc5cc6cn[nH]c6cc5F)c34)C2)C[C@H](C)O1 [Example 221, [(2R,6S)-2,6-Dimethylmorpholin-4-yl]{(7S)-4-[(6-fluoro-1H-indazol-5-yl)amino]-5,6,7,8-tetrahydro[1]benzothieno[2,3-d]pyrimidin-7-yl}methanone] — within 0.2 log units, 8.42
- CCN(C(=O)[C@H]1CCc2c(sc3ncnc(Nc4cc5cn[nH]c5cc4OC(C)C)c23)C1)C(C)C [Example 80, (7S)—N-Ethyl-N-(propan-2-yl)-4-{[6-(propan-2-yloxy)-1H-indazol-5-yl]amino}-5,6,7,8-tetrahydro[1]benzothieno[2,3-d]pyrimidine-7-carboxamide] — 1.05 log units higher, 9.52
- COc1cc2[nH]ncc2cc1Nc1ncnc2sc3c(c12)CC[C@H](C(=O)N(CCO)C1COC1)C3 [Example 37, (7S)—N-(2-Hydroxyethyl)-4-[(6-methoxy-1H-indazol-5-yl)amino]-N-(oxetan-3-yl)-5,6,7,8-tetrahydro[1]benzothieno[2,3-d]pyrimidine-7-carboxamide] — 1.05 log units higher, 9.52
- CN(C)C(=O)[C@H]1CCc2c(sc3ncnc(Nc4cc5cn[nH]c5cc4OC(F)(F)F)c23)C1 [Example 191, (7S)—N,N-Dimethyl-4-{[6-(trifluoromethoxy)-1H-indazol-5-yl]amino}-5,6,7,8-tetrahydro[1]benzothieno[2,3-d]pyrimidine-7-carboxamide] — 0.38 log units higher, 8.85
- CN(C)C(=O)[C@H]1CCc2c(sc3ncnc(Nc4cc5cn[nH]c5cc4OCCNCC(C)(C)C)c23)C1 [Example 275, (7S)-4-[(6-{2-[(2,2-Dimethylpropyl)amino]ethoxy}-1H-indazol-5-yl)amino]-N,N-dimethyl-5,6,7,8-tetrahydro[1]benzothieno[2,3-d]pyrimidine-7-carboxamide] — within 0.2 log units, 8.36
- C[C@@H]1COCCN1C(=O)[C@H]1CCc2c(sc3ncnc(Nc4cc5cn[nH]c5cc4OCCN4CCCCC4)c23)C1 [Example 116, [(3R)-3-Methylmorpholin-4-yl][(7S)-4-({6-[2-(piperidin-1-yl)ethoxy]-1H-indazol-5-yl}amino)-5,6,7,8-tetrahydro[1]benzothieno[2,3-d]pyrimidin-7-yl]methanone] — 2.55 log units lower, 5.92
- COc1cc2[nH]ncc2cc1Nc1ncnc2sc3c(c12)CC[C@H](C(=O)N1CCCC1)C3 [Example 23, {(7S)-4-[(6-Methoxy-1H-indazol-5-yl)amino]-5,6,7,8-tetrahydro[1]benzothieno[2,3-d]pyrimidin-7-yl}(pyrrolidin-1-yl)methanone] — 0.83 log units higher, 9.30
- CN(CC(F)(F)F)C(=O)[C@H]1CCc2c(sc3ncnc(Nc4ccc5[nH]ncc5c4)c23)C1 [Example 5, (7S)-4-(1H-Indazol-5-ylamino)-N-methyl-N-(2,2,2-trifluoroethyl)-5,6,7,8-tetrahydro[1]benzothieno[2,3-d]pyrimidine-7-carboxamide] — 0.73 log units lower, 7.74
- CN(C)C(=O)[C@H]1CCc2c(sc3ncnc(Nc4cc5cn[nH]c5cc4OCCN=[N+]=[N-])c23)C1 [Example 107, (7S)-4-{[6-(2-Azidoethoxy)-1H-indazol-5-yl]amino}-N,N-dimethyl-5,6,7,8-tetrahydro[1]benzothieno[2,3-d]pyrimidine-7-carboxamide] — 0.47 log units lower, 8.00
- CN(C)C(=O)[C@H]1CCc2c(sc3ncnc(Nc4cc5cn[nH]c5cc4OC4CCOCC4)c23)C1 [Example 200, (7S)—N,N-Dimethyl-4-{[6-(tetrahydro-2H-pyran-4-yloxy)-1H-indazol-5-yl]amino}-5,6,7,8-tetrahydro[1]benzothieno[2,3-d]pyrimidine-7-carboxamide] — 0.33 log units higher, 8.80
- COc1cc2[nH]ncc2cc1Nc1ncnc2sc3c(c12)CC[C@H](C(=O)N1CC(C)(O)C1)C3 [Example 36, (3-hydroxy-3-Methylazetidin-1-yl){(7S)-4-[(6-methoxy-1H-indazol-5-yl)amino]-5,6,7,8-tetrahydro[1]benzothieno[2,3-d]pyrimidin-7-yl}methanone] — 0.83 log units higher, 9.30
- CN(CCC(F)(F)F)C(=O)[C@H]1CCc2c(sc3ncnc(Nc4cc5cn[nH]c5cc4N(C)C)c23)C1 [Example 241, (7S)-4-{[6-(Dimethylamino)-1H-indazol-5-yl]amino}-N-methyl-N-(3,3,3-trifluoropropyl)-5,6,7,8-tetrahydro[1]benzothieno[2,3-d]pyrimidine-7-carboxamide] — 1.23 log units higher, 9.70
- CC(C)Oc1cc2[nH]ncc2cc1Nc1ncnc2sc3c(c12)CC[C@H](C(=O)N1CC(N(C)C)C1)C3 [Example 219, [3-(Dimethylamino)azetidin-1-yl][(7S)-4-{[6-(propan-2-yloxy)-1H-indazol-5-yl]amino}-5,6,7,8-tetrahydro[1]benzothieno[2,3-d]pyrimidin-7-yl]methanone] — 1.23 log units higher, 9.70
- CSc1cc2[nH]ncc2cc1Nc1ncnc2sc3c(c12)CC[C@H](C(=O)N1CC(N(C)C)C1)C3 [Example 285, [3-(dimethylamino)azetidin-1-yl][(7S)-4-{[6-(methylsulfanyl)-1H-indazol-5-yl]amino}-5,6,7,8-tetrahydro[1]benzothieno[2,3-d]pyrimidin-7-yl]methanone] — 0.27 log units higher, 8.74
- C[C@@H]1CN(C(=O)[C@H]2CCc3c(sc4ncnc(Nc5cc6cn[nH]c6cc5F)c34)C2)C[C@@H](C)O1 [Example 224, [(2R,6R)-2,6-Dimethylmorpholin-4-yl]{(7S)-4-[(6-fluoro-1H-indazol-5-yl)amino]-5,6,7,8-tetrahydro[1]benzothieno[2,3-d]pyrimidin-7-yl}methanone] — within 0.2 log units, 8.43

same assay, conditions: Table 2; ratio of the IC50-value of an R-enantiomer and its corresponding S-enantiomer

With `CCOc1cc2[nH]ncc2cc1Nc1ncnc2sc3c(c12)CC[C@H](C(=O)N1CCC(=O)CC1)C3` [Example 68, 1-({(7S)-4-[(6-Ethoxy-1H-indazol-5-yl)amino]-5,6,7,8-tetrahydro[1]benzothieno[2,3-d]pyrimidin-7-yl}carbonyl)piperidin-4-one] the “Activity-Ratio MKNK1” value was 9.0.
